{"source": "patent US12558322B2", "about": "“Control method of local release for target compounds by using patterning hydrogel to nanoporous membrane” (KNU-Industry Cooperation Foundation, priority 2018, dated 2026)", "key": {"YD-10B cells [1]": {"tested_on": "YD-10B cells", "experiment": "Actin filament staining of YD-10B cells (colony formation)", "format": "cell-based, human", "conditions": "5-FU encapsulated in HAMA hydrogel array, 5 days", "method": "To estimate the rate of apoptosis of tumor cells at a controlled release anticancer drug rate, YD-10B cells derived from human oral squamous cancer were cultured on a 15% (w/v) HAMA hydrogel-arrayed amphipathic membrane. The amphipathic membrane was prepared at a size of 20 mm×20 mm and was fixed at the bottom of the cell culture dish with the use of PDMS blocks as supporters to prevent floating in the culture media. Overall, YD-10B cells (100 μL, cell density of 1.0×10^6 cells/mL) were seeded on the HAMA hydrogel-arrayed amphipathic membrane that contained 5-FU. As a control group, YD-10B cells without 5-FU were seeded on the array. The cells were cultured in culture media [RPMI (RPMI 1640 medium, HEPES)] (Gibco, CA, USA) with 10% fetal bovine serum (FBS) (Gibco) and 1% penicillin/streptomycin (Gibco) in an incubator (MCO-18AIC, Sanyo, Japan) at 5% CO2 and 37.5° C. After 5 days, the live/dead assay [live/dead viability/cytotoxicity kit (Invitrogen, MA, USA)] was conducted to evaluate anticancer performance. […] The viability of the YD-10B cells on the amphipathic membrane was evaluated by a fluorescent microscope (Zeiss, Germany). The cytoplasm of live cells was stained with calcein-AM (green fluorescence, excitation wavelength: 488 nm/emission wavelength: 515 nm), while the DNA of dead cells was stained with EthD-1 as fluorescence red (excitation: 570 nm/emission: 602 nm). […]"}, "YD-10B cells [2]": {"tested_on": "YD-10B cells", "experiment": "Live/dead assay of YD-10B cells on 5-FU containing HAMA hydrogel arrays", "format": "cell-based, human", "conditions": "5 days", "method": "To estimate the rate of apoptosis of tumor cells at a controlled release anticancer drug rate, YD-10B cells derived from human oral squamous cancer were cultured on a 15% (w/v) HAMA hydrogel-arrayed amphipathic membrane. The amphipathic membrane was prepared at a size of 20 mm×20 mm and was fixed at the bottom of the cell culture dish with the use of PDMS blocks as supporters to prevent floating in the culture media. Overall, YD-10B cells (100 μL, cell density of 1.0×10^6 cells/mL) were seeded on the HAMA hydrogel-arrayed amphipathic membrane that contained 5-FU. As a control group, YD-10B cells without 5-FU were seeded on the array. The cells were cultured in culture media [RPMI (RPMI 1640 medium, HEPES)] (Gibco, CA, USA) with 10% fetal bovine serum (FBS) (Gibco) and 1% penicillin/streptomycin (Gibco) in an incubator (MCO-18AIC, Sanyo, Japan) at 5% CO2 and 37.5° C. After 5 days, the live/dead assay [live/dead viability/cytotoxicity kit (Invitrogen, MA, USA)] was conducted to evaluate anticancer performance. The solution for the live/dead assay was mixed with 20 μL of Ethidium Homodimer-1 (EthD-1) and 5 μL of calcein-AM in 10 mL of DPBS in the dark room. The culture media were eliminated using a micropipette, and the residual media were washed twice by DPBS. The staining solution was added on the arrayed amphipathic membrane and incubated for 40 min. The viability of the YD-10B cells on the amphipathic membrane was evaluated by a fluorescent microscope (Zeiss, Germany). The cytoplasm of live cells was stained with calcein-AM (green fluorescence, excitation wavelength: 488 nm/emission wavelength: 515 nm), while the DNA of dead cells was stained with EthD-1 as fluorescence red (excitation: 570 nm/emission: 602 nm). Additionally, the actin filaments of cells were stained to verify the colony formations of tumor cells. For the fixation of cultured cells, the membrane was washed with DPBS and was immersed in 4% paraformaldehyde (PFA) for 15 min. Triton X-100 was used for permeabilization for 5 min at −20° C. on a PFA-immersed membrane. […]"}}, "data": [{"smiles": "O=c1[nH]cc(F)c(=O)[nH]1", "note": "[5-FU]", "values": [{"measurement": "cell growth and colony formation", "setting": "YD-10B cells [1]", "value": "can inhibit the growth and proliferation of cells"}, {"measurement": "reduction of adhesion rate (calcein-AM expression area)", "setting": "YD-10B cells [2]; 5-FU encapsulated in HAMA hydrogel array, vs without 5-FU", "value": "approximately 48%"}, {"measurement": "viable cells (live/dead assay)", "setting": "YD-10B cells [2]; HAMA hydrogel arrays containing 5-FU", "value": "only a few viable cells were visible"}, {"measurement": "adhesion area (calcein-AM)", "setting": "YD-10B cells [2]; cultured with 5-FU in HAMA hydrogel array", "value": "approximately 19,321 μm^2"}]}]}
